In patent EP3202813A1, “CURABLE COMPOSITION AND MOLDED ARTICLE COMPRISING THE COMPOSITION” (Telene SAS, priority 2016, dated 2017):

Assay: Half-life t1/2CT of radical generators, calculated by Arrhenius formulae from supplier data
Assay type: physicochemical
Description: The half-life of the radical generators used in the compositions for different curing temperatures CT have been calculated by using the well-known formulae given below and data obtained by the supplier of the radical generators (AkzoNobel) (Tables 1-4) kd = A⋅e^(−Ea/RT) [formula] t½ = (ln2)/kd [formula] • Ea = 127.52 kJ/mole • A = 7.59E+13 s^-1 • R = 8.3142 J/mole·K • T = (273.15+°C) K Table 1: The half-life t1/2CT of Trigonox 29C at different curing temperatures CT
kd = A⋅e^(−Ea/RT) [formula] t½ = (ln2)/kd [formula] • Ea = 124.90 kJ/mole • A = 1.54E+14 s^-1 • R = 8.3142 J/mole·K • T = (273.15+°C) K Table 2: The half-life t1/2CT of Trigonox 21S at different curing temperatures CT
kd = A⋅e^(−Ea/RT) [formula] t½ = (ln2)/kd [formula] • Ea = 140.78 kJ/mole • A 1.94E+15 s^-1 • R = 8.3142 J/mole·K • T =(273.15+°C) K Table 3: The half-life t1/2CT of Trigonox 42S at different curing temperatures CT
kd = A⋅e^(−Ea/RT) [formula] t½ = (ln2)/kd [formula] • Ea = 153.46 kJ/mole • A = 4.20E+15 s^-1 • R = 8.3142 J/mole·K • T = (273.15+°C) K Table 4: The half-life t1/2CT of Trigonox B at different curing temperatures CT

CC(C)(C)OOC(C)(C)C [Trigonox B, tert-butyl peroxide]
t1/2 (T 80 °C): 2291.85 h
t1/2 (h) (T 80 °C): 2291,8 h
t1/2 (min) (T 80 °C): 137511,0 min
t1/2 (T 90 °C): 543.4131 h
t1/2 (h) (T 90 °C): 543,4 h
t1/2 (min) (T 90 °C): 32604,8 min
t1/2 (T 95 °C): 272.481 h
t1/2 (h) (T 95 °C): 272,5 h
t1/2 (min) (T 95 °C): 16348,8 min
t1/2 (T 100 °C): 139.18 h
t1/2 (h) (T 100 °C): 139,2 h
t1/2 (min) (T 100 °C): 8350,8 min
t1/2 (T 105 °C): 72.3653 h
t1/2 (h) (T 105 °C): 72,4 h
t1/2 (min) (T 105 °C): 4341,9 min
t1/2 (T 110 °C): 38.2736 h
t1/2 (h) (T 110 °C): 38,3 h
t1/2 (min) (T 110 °C): 2296,4 min
t1/2 (T 120 °C): 11.239 h
t1/2 (h) (T 120 °C): 11,2 h
t1/2 (min) (T 120 °C): 674,4 min
t1/2 (T 130 °C): 3.5075 h
t1/2 (h) (T 130 °C): 3,5 h
t1/2 (min) (T 130 °C): 210,4 min
t1/2 (T 150 °C): 0.4028 h
t1/2 (h) (T 150 °C): 0,4 h
t1/2 (min) (T 150 °C): 24,2 min
t1/2 (T 190 °C): 0.00944 h
t1/2 (h) (T 190 °C): 0,01 h
t1/2 (min) (T 190 °C): 0,6 min
